Patent US20180338980A1, “AROMATIC SULFONAMIDE DERIVATIVES” (BAYER PHARMA AKTIENGESELLSCHAFT, priority 2015, published 2018)

How the values were obtained:
P2X4 [1] = biological target: T1, P2X4 (Homo sapiens, UniProt Q99571); test: Assay B: human P2X4 receptor cell line, mitochondrial photina luminescence (agonist Bz-ATP at EC50); type: cell-based; design: host or cells: HEK 293 (recombinant, constitutively expressing; with mitochondrial photina in Assay B); details: HEK human P2X4 cell line, photina luminescence, agonist Bz-ATP at EC50, average; for Emax: read-out: human P2X4 Assay B avg Efficacy
T1 sequence (Q99571 1-388): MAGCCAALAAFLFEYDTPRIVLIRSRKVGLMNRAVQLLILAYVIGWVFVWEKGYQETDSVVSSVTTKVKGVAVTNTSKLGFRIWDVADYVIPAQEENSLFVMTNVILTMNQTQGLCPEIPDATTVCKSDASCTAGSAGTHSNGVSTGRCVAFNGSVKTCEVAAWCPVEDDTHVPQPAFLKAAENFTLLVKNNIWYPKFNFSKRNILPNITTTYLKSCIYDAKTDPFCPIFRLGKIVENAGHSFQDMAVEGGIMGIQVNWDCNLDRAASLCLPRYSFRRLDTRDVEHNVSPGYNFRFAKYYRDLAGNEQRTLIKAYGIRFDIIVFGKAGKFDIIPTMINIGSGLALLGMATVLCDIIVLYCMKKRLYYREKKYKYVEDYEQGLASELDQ
Summary of the method: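 Bz-ATP at its EC50 activates human P2X4 stably expressed in a cell line that also carries the calcium-sensitive photoprotein mitochondrial photina (coelenterazine cofactor). Light emitted on calcium influx is measured straight away in a luminometer. Reduced luminescence indicates antagonism.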

P2X4 [2] = biological target: T1, P2X4; test: Assay A: human P2X4 receptor cell line, FLIPR calcium assay (Fluo-8, agonist Bz-ATP at EC80); type: cell-based; design: host or cells: HEK 293 (recombinant, constitutively expressing; with mitochondrial photina in Assay B); details: HEK human P2X4 cells, Fluo-8 FLIPR; for IC50: Bz-ATP at EC80, average values; for Emax: percentage of maximal inhibition, read-out: human P2X4 Assay A avg Efficacy
Protocol: A fluorescent imaging plate reader (FLEX/FLIPR station; Molecular Devices) was used to monitor intracellular calcium levels using the calcium-chelating dye Fluo-8 (Molecular Probes). […] Cells expressing purinergic receptors human P2X4 (HEK human P2X4: PerkinElmer, Product No.: AX-015-PCF) were plated at a density of 20,000 cells/well in poly-D-lysine-coated 384-well plates approximately 20 hours before beginning the assay. On the day of the assay, the medium was removed and 30 μl of dye buffer (Hank's balanced salt solution, 10 mM HEPES, 1.8 mM CaCl2), 1 mM MgCl2, 2 mM probenecid, 5 mM D-glucose monohydrate, 5 μM Fluo-8, pH=7.4) was added for 30 min at […] and 5% CO2. The antagonist in probenecid buffer (Hank's balanced salt solution, 10 mM HEPES, 1.8 mM CaCl2, 1 mM MgCl2, 2 mM probenecid, 5 mM D-glucose monohydrate, pH=7.4) was added in a volume of 10 μl and allowed to incubate for 30 min at room temperature. The final assay DMSO concentration is 0.5%. The agonist, Bz-ATP, is added in a volume of 10 μl at a concentration representing the EC80 value. The fluorescence was measured for an interval of 120 sec at 2 sec intervals and analyzed based on the increase in peak relative fluorescence units (RFU) compared to the basal fluorescence. Peak fluorescence was used to determine the response to agonist obtained at each concentration of antagonist by the following equation:
% Response=100*(RFU(drug)−RFU(control))/(RFU(DMSO)−RFU(control))
The compounds were tested in triplicates per plate and mean values were plotted in Excel XLFit to determine IC50 values, percentage of maximal inhibition and the Hill coefficients.

IC50 (P2X4 [1]) [nM]	Emax (P2X4 [1]) [%]	IC50 (P2X4 [2]) [nM]	Emax (P2X4 [2]) [%]	Structure (SMILES)
552	67	38	87	COCCN(C)C(=O)c1cccc(CC(=O)Nc2ccc(Oc3cccc(Cl)c3)c(S(N)(=O)=O)c2)c1 [Example 208, 3-(2-{[4-(3-Chlorophenoxy)-3-sulfamoylphenyl]amino}-2-oxoethyl)-N-(2-methoxyethyl)-N-methylbenzamide]
380	60	184	77	Cc1ccc(Cl)c(CC(=O)Nc2ccc(Oc3cccc(Cl)c3)c(S(N)(=O)=O)c2)c1Cl [Example 128, N-[4-(3-Chlorophenoxy)-3-sulfamoylphenyl]-2-(2,6-dichloro-3-methylphenyl)acetamide]
95	68	149	90	CC(C)c1cccc(Oc2ccc(NC(=O)Cc3ccccc3Cl)cc2S(N)(=O)=O)c1 [Example 004, 2-(2-Chlorophenyl)-N-[4-(3-isopropylphenoxy)-3-sulfamoylphenyl]acetamide]
–	96	–	90	NS(=O)(=O)c1cc(NC(=O)Cc2ccccc2Cl)ccc1Oc1cccc(-n2cnnc2)c1 [Example 020, 2-(2-Chlorophenyl)-N-{3-sulfamoyl-4-[3-(4H-1,2,4-triazol-4-yl)phenoxy]phenyl}acetamide]
73	91	44	88	NS(=O)(=O)c1cc(NC(=O)Cc2ccccc2Cl)ccc1Oc1ccc2c(c1)OCO2 [Example 008, N-[4-(1,3-Benzodioxol-5-yloxy)-3-sulfamoylphenyl]-2-(2-chlorophenyl)acetamide]
123	78	119	84	Cc1ccc(Cl)c(CC(=O)Nc2ccc(Oc3cccc(Cl)c3)c(S(N)(=O)=O)c2)c1 [Example 097, 2-(2-Chloro-5-methylphenyl)-N-[4-(3-chlorophenoxy)-3-sulfamoylphenyl]acetamide]
140	51	44	65	NS(=O)(=O)c1cc(NC(=O)Cc2ccccc2Cl)ccc1Oc1cncc(F)c1 [Example 080, 2-(2-Chlorophenyl)-N-{4-[(5-fluoropyridin-3-yl)oxy]-3-sulfamoylphenyl}acetamide]
–	65	–	87	NS(=O)(=O)c1cc(NC(=O)Cc2ccccc2Cl)ccc1OCCc1ccccc1 [Example 155, 2-(2-Chlorophenyl)-N-[4-(2-phenylethoxy)-3-sulfamoylphenyl]acetamide]
970	69	265	80	C=C(C)c1cccc(Oc2ccc(NC(=O)Cc3ccccc3Cl)cc2S(N)(=O)=O)c1 [Example 177, 2-(2-Chlorophenyl)-N-{4-[3-(prop-1-en-2-yl)phenoxy]-3-sulfamoylphenyl}acetamide]
–	63	–	76	NS(=O)(=O)c1cc(NC(=O)Cc2ccc(Cl)cc2)ccc1Oc1cccc(Cl)c1 [Example 180, N-[4-(3-Chlorophenoxy)-3-sulfamoylphenyl]-2-(4-chlorophenyl)acetamide]
2400	86	284	77	NS(=O)(=O)c1cc(NC(=O)Cc2c(Cl)ccc(Br)c2Cl)ccc1Oc1cccc(Cl)c1 [Example 131, 2-(3-bromo-2,6-dichlorophenyl)-N-[4-(3-chlorophenoxy)-3-sulfamoylphenyl]acetamide]
129	46	> 25000	51	NS(=O)(=O)c1cc(NC(=O)Cc2ccccc2Cl)ccc1Oc1ccc(Cl)cc1 [Example 066, N-[4-(4-Chlorophenoxy)-3-sulfamoylphenyl]-2-(2-chlorophenyl)acetamide]
73	108	99	87	NS(=O)(=O)c1cc(NC(=O)Cc2ccccc2Cl)ccc1Oc1cccc(OC(F)(F)F)c1 [Example 006, 2-(2-Chlorophenyl)-N-{3-sulfamoyl-4-[3-(trifluoromethoxy)phenoxy]phenyl}acetamide]
671	68	515	85	NS(=O)(=O)c1cc(NC(=O)Cc2ccccc2Cl)ccc1Oc1ccc(N2CCCC2=O)cc1 [Example 043, 2-(2-Chlorophenyl)-N-{4-[4-(2-oxopyrrolidin-1-yl)phenoxy]-3-sulfamoylphenyl}acetamide]
–	79	–	96	NS(=O)(=O)c1cc(NC(=O)Cc2ccccc2Cl)ccc1OCc1ccccn1 [Example 150, 2-(2-Chlorophenyl)-N-[4-(pyridin-2-ylmethoxy)-3-sulfamoylphenyl]acetamide]
> 50000	33	> 25000	31	NS(=O)(=O)c1cc(NC(=O)Cc2ccccc2Cl)c(Cl)cc1Oc1cccc(Cl)c1 [Example 082, N-[2-chloro-4-(3-chlorophenoxy)-5-sulfamoylphenyl]-2-(2-chlorophenyl)acetamide]
–	40	–	54	NS(=O)(=O)c1cc(NC(=O)Cc2ccccc2Cl)ccc1Oc1cnc(Cl)nc1 [Example 079]
73	76	27	90	NS(=O)(=O)c1cc(NC(=O)Cc2ccccc2Cl)ccc1Oc1ccccc1F [Example 010, 2-(2-Chlorophenyl)-N-[4-(2-fluorophenoxy)-3-sulfamoylphenyl]acetamide]
695	43	562	73	NS(=O)(=O)c1cc(NC(=O)Cc2ccc(C(F)F)cc2)ccc1Oc1ccc(Cl)cc1 [Example 234, N-[4-(4-Chlorophenoxy)-3-sulfamoylphenyl]-2-[4-(difluoromethyl)phenyl]acetamide]
–	35	> 25000	39	NS(=O)(=O)c1cc(NC(=O)Cc2cccc(F)c2Cl)c(Cl)cc1Oc1cccc(Cl)c1 [Example 083, N-[2-chloro-4-(3-chlorophenoxy)-5-sulfamoylphenyl]-2-(2-chloro-3-fluorophenyl)acetamide]
84	61	68	85	COc1ccc(Cl)c(CC(=O)Nc2ccc(Oc3cccc(Cl)c3)c(S(N)(=O)=O)c2)c1 [Example 102, 2-(2-Chloro-5-methoxyphenyl)-N-[4-(3-chlorophenoxy)-3-sulfamoylphenyl]acetamide]
> 16000	36	65	43	NS(=O)(=O)c1cc(NC(=O)Cc2ccccc2Cl)ccc1Oc1ccc(Cl)nc1 [Example 081, 2-(2-Chlorophenyl)-N-{4-[(6-chloropyridin-3-yl)oxy]-3-sulfamoylphenyl}acetamide]
–	65	–	69	Cc1ccc(CC(=O)Nc2ccc(Oc3cccc(Cl)c3)c(S(N)(=O)=O)c2)cc1 [Example 179, N-[4-(3-Chlorophenoxy)-3-sulfamoylphenyl]-2-(4-methylphenyl)acetamide]
> 50000	14	> 25000	37	CC1(C)CC(Oc2ccc(NC(=O)Cc3ccccc3Cl)cc2S(N)(=O)=O)CC(C)(C)O1 [Example 269, 2-(2-Chlorophenyl)-N-{3-sulfamoyl-4-[(2,2,6,6-tetramethyltetrahydro-2H-pyran-4-yl)oxy]phenyl}acetamide]
640	102	541	72	Cc1ccc(Br)c(Cl)c1CC(=O)Nc1ccc(Oc2cccc(Cl)c2)c(S(N)(=O)=O)c1 [Example 132, 2-(3-Bromo-2-chloro-6-methylphenyl)-N-[4-(3-chlorophenoxy)-3-sulfamoylphenyl]acetamide]
